{"source": "patent US20130259842A1", "about": "“STABLE REPROGRAMMED CELLS” (priority 2010, published 2013)", "tested_on": "piPSC lines", "experiment": "Chemical reprogramming of stable intermediate cell lines", "assay_type": "cell-based, mouse", "protocol": "A subset of piPS cell lines were treated with RepSox (E-616452) (25 μM), AZA (500 μM), or both for 48 hours. For 2i treatment, CHIR99021 (Stemgent) was used at 3 μM and PD0325901 (Stemgent) was used at 1 μM. Oct4::GFP+ colonies were scored 12 days after the beginning of chemical treatment. Treatments were performed in mES media containing FBS unless otherwise noted.\n10× bright field image merged with Oct4::GFP. The concentration of DMSO equals 0.2%.\npiPSC or iPSC were plated on irradiated feeders or 0.1% gelatin, and grown in mES media treated with RepSox (E-616452) (25 μM), AZA (500 μM), or both for 48 hours. For 2i treatment, CHIR99021 (Stemgent) was used at 3 μM and PD0325901 (Stemgent) was used at 1 μM. Oct4::GFP+ colonies were scored 12 days after the beginning of chemical treatment. Treatments were performed in mES media containing FBS unless otherwise noted.\nTo examine whether multiple piPSC lines could be further reprogrammed to a fully pluripotent state, piPSC were cultured in the presence of RepSox, a known inhibitor of Tgf-β signalling previously described to reprogram intermediate cells (Ichida et al., 2009), 2i-treatment, combined chemical inhibition of Mek/Erk and GSK3 signaling (Silva et at, 2008), or the DNA methyl-transferase inhibitor 5′AzaC."}
{"compound": "Cc1cccc(-c2[nH]ncc2-c2ccc3ncccc3n2)n1", "note": "[RepSox]", "values": [{"measurement": "reprogramming scored by presence of Oct4::GFP positive colonies", "setting": "25 μM RepSox, 2i = CHIR99021 3 μM + PD0325901 1 μM, exposed 48 hours, scored 12 days later", "value": "a subset of piPSC lines reprogram"}, {"measurement": "further reprogramming to fully reprogrammed iPS cells as determined by the expression of Nanog", "setting": "25 μM for 48 hours, piPSC lines D, F, G, and E, Nanog RT-PCR at 96 hours", "value": "underwent further reprogramming to fully reprogrammed iPS cells"}]}
